# In the SangsterLogP compilation:
# Test: method code SF, from PMID: 6889867
# Details: pH 7.4
row,SMILES,logD
1,COc1c(Cl)cc(Cc2cnc(N)nc2N)cc1Cl,2.59

# Test: method code SF-AS, from PMID: 6889867
# Details: not given
row,SMILES,logP
1,CNc1cc(Cc2cnc(N)nc2N)cc(N(C)C(C)=O)c1C,0.53
2,COCc1c(OC)cc(Cc2cnc(N)nc2N)cc1OC,1.19
3,COc1cc(Cc2cnc(N)nc2N)cc(O)c1O,-0.31
4,COc1c(O)cc(Cc2cnc(N)nc2N)cc1O,-0.04
5,COc1cc(Cc2cnc(N)nc2N)cc(OCc2ccccc2)c1OC,2.37
6,CCCCOc1cc(Cc2cnc(N)nc2N)c(C)cc1OC,2.78
7,COCCOc1c(OC)cc(Cc2cnc(N)nc2N)cc1OC,0.56
8,COc1cccc(Cc2cnc(N)nc2N)c1,1.54
9,COc1cc(Cc2cnc(N)nc2N)cc(OC)c1C(=O)OC(C)C,1.72
10,COc1cc(Cc2cnc(N)nc2N)cc(C)c1OC,1.62
11,COc1cc(OC)c(OC)cc1Cc1cnc(N)nc1N,1.17
12,COc1cc(Cc2cnc(N)nc2N)cc(OC)c1-n1cccc1,1.78
13,COc1cc(Cc2cnc(N)nc2N)cc(OC)c1CO,0.42
14,COc1cc(Cc2cnc(N)nc2N)cc(OC)c1SC,1.54
15,CCOc1cc(Cc2cnc(N)nc2N)cc(OCC)c1C(=O)CS(C)(=O)=O,0.79
16,COC(=O)COc1c(OC)cc(Cc2cnc(N)nc2N)cc1OC,0.55
17,COc1cc(Cc2cnc(N)nc2N)ccc1O,0.64
18,CCOC(=O)c1c(OC)cc(Cc2cnc(N)nc2N)cc1OC,1.25
19,COc1cc(Cc2cnc(N)nc2N)cc(OC)c1C(=O)N(C)C,-0.21

row,SMILES,logP
1,COc1cc(Cc2cnc(N)nc2N)cc(OC)c1Cl,1.87
2,COc1c(C)cc(Cc2cnc(N)nc2N)cc1C,2.19
3,CCOc1c(OC)cc(Cc2cnc(N)nc2N)cc1OC,1.34
4,COc1cc(Cc2cnc(N)nc2N)cc(OC)c1OCc1ccccc1,2.46
5,COc1cc(C)c(Cc2cnc(N)nc2N)cc1OCc1ccccc1,2.69
6,COc1cc(Cc2cnc(N)nc2N)cc(OC)c1OCC#N,0.72
7,COc1ccc(Cc2cnc(N)nc2N)cc1OCc1ccccc1,2.44
8,CN(C)c1cc(Cc2cnc(N)nc2N)cc(N(C)C)c1,1.6
9,COc1cc(C)c(Cc2cnc(N)nc2N)cc1OC,1.23
10,Cc1c(N(C)C)cc(Cc2cnc(N)nc2N)cc1N(C)C,2.06
11,CNc1cc(Cc2cnc(N)nc2N)cc(NC)c1,0.44
12,C=C(C)c1c(OC)cc(Cc2cnc(N)nc2N)cc1OCC,2.65
13,COc1cc(Cc2cnc(N)nc2N)ccc1C(C)(C)O,1.38
14,COc1cc(Cc2cnc(N)nc2N)cc(OC)c1C(=O)CS(C)(=O)=O,-0.31
15,COc1ccc(Cc2cnc(N)nc2N)cc1OC,0.97
16,COc1cc(Cc2cnc(N)nc2N)cc(OC)c1O,0.37
17,COc1cc(Cc2cnc(N)nc2N)ccc1OCc1ccccc1,2.66
18,Nc1ccc(Cc2cnc(N)nc2N)cc1,0.22
19,CCSc1c(OC)cc(Cc2cnc(N)nc2N)cc1OC,1.79

# Same assay, conditions: pH 7.4
row,SMILES,logD
1,Nc1ncc(Cc2cc(Cl)c(Cl)c(Cl)c2)c(N)n1,3.45
2,CCOc1cc(Cc2cnc(N)nc2N)cc(OCC)c1C(C)=O,1.85
3,COc1ccc(Cc2cnc(N)nc2N)c(OC)n1,1.83
4,Nc1ncc(Cc2cc3c(cc2Br)OCO3)c(N)n1,2.3
5,COc1cc(Cc2cnc(N)nc2N)cc(OC)c1C(C)C,3.18
6,COc1c(N(C)C)cc(Cc2cnc(N)nc2N)cc1N(C)C,1.86
7,CNc1cc(Cc2cnc(N)nc2N)cc(N(C)C)c1OC,1.56
8,COc1cc(Cc2cnc(N)nc2N)cc(Cl)c1OC,1.73
9,COc1ccc(Cc2cnc(N)nc2N)cc1O,0.55
10,COc1cc(Cc2cnc(N)nc2N)c(Cl)c(OC)c1,1.94
11,COc1cc(OC)c(Cl)c(Cc2cnc(N)nc2N)c1Cl,2.32
12,Nc1ncc(Cc2ccc3c(c2)OCO3)c(N)n1,1.3
13,COc1c(OCc2ccccc2)cc(Cc2cnc(N)nc2N)cc1OCc1ccccc1,3.7
14,COc1cncc(OC)c1Cc1cnc(N)nc1N,1.48
15,COc1cc(Cc2cnc(N)nc2N)cc(OC)c1Br,1.82
16,C=CCc1c(OCC)cc(Cc2cnc(N)nc2N)cc1OCC,2.89
17,Cc1cc2c(cc1Cc1cnc(N)nc1N)OCO2,1.7
18,CCOc1cc(Cc2cnc(N)nc2N)cc(OCC)c1C(C)(C)O,2.3

row,SMILES,logD
1,COc1cc(Cc2cnc(N)nc2N)ccc1C,1.95
2,CCOC(=O)c1c(OCC)cc(Cc2cnc(N)nc2N)cc1OCC,2.09
3,COC(=O)c1c(OC)cc(Cc2cnc(N)nc2N)cc1OC,0.76
4,CCOc1cc(Cc2cnc(N)nc2N)cc(OCC)c1N,1.5
5,CCOc1cc(Cc2cnc(N)nc2N)cc(OCC)c1-n1cccc1,2.74
6,COc1cc(Cc2cnc(N)nc2N)cc(OCc2ccccc2)c1OCc1ccccc1,3.9
7,COc1cc(Cc2cnc(N)nc2N)cc(OC)c1C(C)=O,0.91
8,Nc1ncc(Cc2cc(Cl)c(Cl)cc2Cl)c(N)n1,3.6
9,COc1cc(Cc2cnc(N)nc2N)cc(OC)c1N,0.6
10,COc1cc(Cc2cnc(N)nc2N)cc(OC)c1C#N,1.2
11,O=C1CN=C(c2ccccc2F)c2cc(I)ccc2N1CC(O)CO (centres undefined),1.81
12,COc1cc(Cc2cnc(N)nc2N)ccc1SC,1.73
13,COc1cc(Cc2cnc(N)nc2N)cc(OC)c1C(C)(C)O,1.3
14,COc1cc(Cc2cnc(N)nc2N)cc2c1OCO2,1.19
15,COc1cc(Cc2cnc(N)nc2N)cc(OC)c1I,2.21
16,CCOc1cc(Cc2cnc(N)nc2N)cc(OC)c1C(C)(C)O,1.92
17,COc1cc(Cc2cnc(N)nc2N)cc(I)c1OC,2.14
